The values below come from patent US12084422B2, “Phenyl-n-quinoline derivatives for treating a RNA virus infection” (ABIVAX, priority 2018, dated 2024).

In general, inhibition refers to the relative decrease from the control value, in per cent. For orientation: IC50 means the concentration needed to halve the response being measured. The low end stands for greater potency in that assay, the high end for weaker potency in that assay.

Test [1] concerns Chikungunya Virus (CHIKV) strain LR2006-OPY1 with GFP modification (CHIK 5'LR). Nature of the test: Inhibition of Chikungunya virus (CHIKV) production in infected HEK293T cell line (GFP fluorescence). Format: cell-based. Particulars: HEK-293T, infected HEK293T cells; for inhibition at 1 µM: compounds at 1 μM, MOI 0.1, 22 h, values above 100 lowered to 100, read-out: % CHIKV Inhibition Mean (n = 2); for IC50: second round of experiments. On the procedure: The ability of the compounds to inhibit viral replication was assessed with an experiment in which infected cells were treated by compounds of formula (I) at 1 μM. As a positive control for inhibition of Chikungunya, Ribavirin was used. Toxicity of the compounds was assessed in parallel.
Human embryonic kidney cells 293T (HEK293T, CRL-11268) were maintained in Dulbecco's modified Eagle's Medium (DMEM, 31966-021, Thermo Fisher Scientific) supplemented with 10% of fetal bovine serum (FBS), penicillin and streptomycin. After removal of the medium, cells were washed with a Ca^2+- and Mg^2+-free salt solution to remove all traces of serum. After aspiration of wash solution, cells were dissociated with 0.25% Trypsin-EDTA solution and incubated 30 s at least in 37° ° C. incubator. Concentration of cell suspension was determined by an automatic cell counter (EVE, NanoEntek) and, if needed, adjusted to 0.33×10^6 cells/mL with DMEM medium supplemented with 10% FBS.
100 μL of the cell suspension were dispatched in a ViewPlate-96 Black (6005182, PerkinElmer) and in a transparent 96-well cell culture plate (655180, Greiner bio-one). After an incubation for 24 h at 37° C. under 5% of CO2, compounds were added at the proper concentration.
An intermediate dilution was prepared with DMSO (D8418, Sigma) at 2 mM in a 96-well V-bottom microplate from the stock solution:
Mix 1 μL of the 50 mM stock library in 25 μL of DMSO.
Mix 2 μL of the 25 mM stock library in 25 μL of DMSO.
An intermediate dilution was prepared with DMSO (D8418, Sigma) at 25 mM in a 96-well V-bottom microplate from the stock solution:
Mix 2 μL of the 50 mM stock library in 2 μL of DMSO.
Serial dilutions were performed in 2 μL of DMSO 13 times to reach 0.0015 mM as follows in table III:
For both screen and determination of IC50 1 μL of each solution was added in a 1 mL Masterblock 96 wells (Greiner bio-one, 780261) containing 1 mL of DMEM medium. As a positive control, 5 μL of a 80 mM Ribavirin solution (R9644, Sigma) is added to 1 mL of DMEM. On the other hand, DMSO is used as a negative control.
[…]. Vector Borne Zoonotic Dis. 2006; 6(4)). This modified virus was used to infect cells at MOI 0.1. […].
Medium was removed after 22 h at 37° ° C. under 5% of CO2 and cells were washed as described above. 60 μL of RIPA buffer (50 mM Tris-HCl pH8, 100 mM NaCl, 1 mM MgCl2, 1% Triton X-100) was added to cells and incubated for at least 20 min before reading fluorescence signal. Pierce 660 nm Protein Assay Reagent (22660, Thermo scientific) was used to normalize fluorescence signal by protein quantity.
A first round of experiments has been performed wherein the results are expressed as inhibition percentage, which is calculated as follows, through the following steps:
1. Fluorescence intensity (FI) 509 nm/Absorbance 660 nm (A660)=A
This ratio allows considering the infection (GFP virus) to the protein amount.
2. A′=A—background noise of non-infected plate,
3. B=Fluorescence intensity (FI)/Absorbance 660 nm (A660) of infected but non treated plates,
4. C=A′/B which is then converted as the percentage of infection after treatment, compared to non-treated sample, and subsequently as the […]. For instance, a value of 100 in Table IV here below means that, after treatment, the signal attributed to GFP fluorescence is abolished, which is correlated to the absence of infection.
This value corresponds to the inhibition's percentage.
The following Table IV encompasses said C′ value for some compounds as calculated above with a mean of 2 experiments, and the corresponding standard deviation.
Some values were originally above 100. In these cases, the value has been lowered to 100. This means that some molecules also have an impact on the viability of the cells. In other words, the A value may be lower than the background noise.
Moreover, for each measure, the test was performed with Ribavirin as control. The value of the inhibition percentage was checked, giving 100%.

A further test has as its system DENV-2 strain 16681. Nature of the test: Screening for DENV-2 inhibition using Viral ToxGlo assay in A549 cells. Particulars: Dengue virus, DENV2, A549, 120 h, read-out: % DENV-2 Inhibition Mean (n = 3). It counts as cell-based, Dengue 2 virus. The protocol: Protocol for Screening Antiviral Compounds for DENV-2 Inhibition and Cytotoxicity Using Viral ToxGlo Assay
A549 cells were maintained in Dulbecco's Modified Eagle Medium (DMEM) supplemented with 10% fetal bovine serum, 100 U/ml penicillin and 100 μg/ml streptomycin. For the purposes of the screening assay they were grown to 90% confluency, trypsinized and recovered. The trypsin was neutralised with cell culture media and cells were centrifuged at 150×g for 5 minutes before discarding the supernatant and resuspending cell pellet in assay media (DMEM supplemented with 2% fetal bovine serum and 100 U/ml penicillin and 100 μg/ml streptomycin). The cells were seeded into 96-well white clear-bottomed cell culture plates at a density of 1.0×10^4 cells/well in 50 μl. For the media/background control column assay media only was added. Cell plates were placed in a humid chamber and incubated overnight at 37° C./5% CO2. After overnight incubation cells were checked for confluency and healthy appearance.
Test compounds were prepared at a final concentration of 10 μM, in a maximum DMSO concentration of 1% (final assay concentration maximal 0.1% DMSO) and added to the cell plates in volumes of 10 μl. For cell control and virus control wells the test article solvent only was added. As a positive inhibition control, 7-Deaza-2′-C-methyladenosine was added at 100 μM in 3 wells. Virus (DENV-2 strain 16681) or assay media for cytotoxicity test wells and media/cell control wells was added immediately after test articles at an MOI of 0.5, 40 for 96 well plates respectively. Virus suspension was prepared by thawing DENV-2 frozen stocks and diluting to the required concentration of plaque forming units in assay media.
Cell plates were further incubated inside a humid chamber for 5 days p.i at 37° C./5% CO2. After the incubation period cells were observed under the microscope to check for characteristic cytopathic effect in virus control wells and healthy cells in the cell control wells. After plates were adjusted to room temperature 20 μl Viral ToxGlo (Promega) was added to each well of the 96-well cell plates. Plates were incubated at room temperature for 5 minutes before measuring the luminescence on a spectrophotometer (Envision, PerkinElmer).
DENV-2 inhibition was calculated as percentage of cytopathic effect inhibition relative to the virus control and cytotoxicity as percentage of cell survival relative to cell control wells.

The structures appear in SMILES notation.

With `CCc1cc(OC(F)(F)F)ccc1Nc1ccc2cccc(Cl)c2n1` [Compound 2, 8-chloro-N-(2-ethyl-4-(trifluoromethoxy)phenyl)quinolin-2-amine], in test [1], the inhibition at 1 µM was 100% and the half-maximal inhibitory concentration (IC50) was 1 to 200 nM.

As for `CC(C)Cc1cc(OC(F)(F)F)ccc1Nc1ccc2cccc(Cl)c2n1` [Compound 3, 8-chloro-N-(2-isobutyl-4-(trifluoromethoxy)phenyl)quinolin-2-amine], in test [1], the inhibition at 1 µM was determined as 100%.

As for `FC(F)(F)Oc1ccc(Nc2ccc3cccc(Cl)c3n2)c(C2CC2)c1` [Compound 4, 8-chloro-N-(2-cyclopropyl-4-(trifluoromethoxy)phenyl)quinolin-2-amine], in test [1], the inhibition at 1 µM is 100% and the half-maximal inhibitory concentration (IC50) lay within 1 to 200 nM.

On to `CCc1cc(OC(F)(F)F)cc(C)c1Nc1ccc2cccc(Cl)c2n1` [Compound 5, 8-chloro-N-(2-ethyl-6-methyl-4-(trifluoromethoxy)phenyl)quinolin-2-amine], for which the inhibition at 10 µM with DENV-2 strain 16681 worked out at 156%.

On to `CCc1cc(OC(F)(F)F)ccc1Nc1ccc2ccccc2n1` [Compound 7, N-(2-ethyl-4-(trifluoromethoxy)phenyl)quinolin-2-amine], for which, in test [1], the inhibition at 1 µM turned out to be 99%.

Consider `FC(F)(F)Oc1ccc(Nc2ccc3ccccc3n2)c(C2CC2)c1` [Compound 8, N-(2-cyclopropyl-4-(trifluoromethoxy)phenyl)quinolin-2-amine], for which the inhibition at 1 µM in test [1] was determined as 100%.

As to `CCOc1ccc(Nc2ccc3cccc(Cl)c3n2)c(C)c1` [Compound 12, 8-chloro-N-(4-ethoxy-2-methylphenyl)quinolin-2-amine], in test [1], the inhibition at 1 µM is 95%. For the same compound, in the test on DENV-2 strain 16681, the inhibition at 10 µM is 129%.

In the case of `Cc1cc(OCCOC(F)(F)F)ccc1Nc1ccc2cccc(Cl)c2n1` [Compound 14, 8-chloro-N-(2-methyl-4-(2-(trifluoromethoxy)ethoxy)phenyl)quinolin-2-amine], the inhibition at 1 µM in test [1] stood at 91%.

As to `Cc1cc(OC2CCCC2)ccc1Nc1ccc2cccc(Cl)c2n1` [Compound 16, 8-chloro-N-(4-(cyclopentyloxy)-2-methylphenyl)quinolin-2-amine], in test [1], the inhibition at 1 µM amounted to 98% and the concentration for half-maximal inhibition (IC50) was in the range of 1 to 200 nM. For the same compound, in the test on DENV-2 strain 16681, the inhibition at 10 µM amounted to 77%.

In the case of `Cc1cc(OC2CCCCC2)ccc1Nc1ccc2cccc(Cl)c2n1` [Compound 17, 8-chloro-N-(4-(cyclohexyloxy)-2-methylphenyl)quinolin-2-amine], in test [1], the inhibition at 1 µM is 100% and the IC50 fell in the range of 1 to 200 nM.

For `CC(C)Oc1ccc(Nc2ccc3cccc(Cl)c3n2)c(C2CC2)c1` [Compound 20, 8-chloro-N-(2-cyclopropyl-4-isopropoxyphenyl)quinolin-2-amine], in test [1], the inhibition at 1 µM was 99% and the half-inhibitory concentration (IC50) lay in the range of 1 to 200 nM. Besides, the inhibition at 10 µM in the test on DENV-2 strain 16681 was 94%.

Consider `Cc1c(Nc2ccc3cccc(Cl)c3n2)ccc(OC(C)C)c1C` [Compound 21, 8-chloro-N-(4-isopropoxy-2,3-dimethylphenyl)quinolin-2-amine], for which, in test [1], the inhibition at 1 µM came to 100% and the IC50 lay in the range of 1 to 200 nM.

`Cc1cc(OC2CCC2)ccc1Nc1ccc2cccc(Cl)c2n1` [Compound 22, 8-chloro-N-(4-cyclobutoxy-2-methylphenyl)quinolin-2-amine]: in test [1], the inhibition at 1 µM came to 100% and the IC50 lay in the range of 1 to 200 nM. The inhibition at 10 µM with DENV-2 strain 16681 was 82%.

Consider `Cc1cc(OCc2ccccn2)ccc1Nc1ccc2cccc(Cl)c2n1` [Compound 23, 8-chloro-N-(2-methyl-4-(pyridin-2-ylmethoxy)phenyl)quinolin-2-amine], for which the inhibition at 1 µM in test [1] came to 82%.

Regarding `Fc1ccccc1Oc1ccc(Nc2ccc3ccccc3n2)cc1` [Compound 29, N-(4-(2-fluorophenoxy)phenyl)quinolin-2-amine], the inhibition at 1 µM in test [1] was determined as 97%.

`Cc1ccc(Oc2ccc(Nc3ccc4cccc(Cl)c4n3)cc2)cc1` [Compound 31, 8-chloro-N-(4-(p-tolyloxy)phenyl)quinolin-2-amine]: the inhibition at 1 µM in test [1] amounted to 93%.

`Fc1ccccc1Oc1ccc(Nc2ccc3cccc(Cl)c3n2)cc1` [Compound 32, 8-chloro-N-(4-(2-fluorophenoxy)phenyl)quinolin-2-amine]: the inhibition at 1 µM in test [1] was found to be 90%.

Turning to `CCc1cc(Oc2ccccc2F)ccc1Nc1ccc2ccccc2n1` [Compound 39, N-(2-ethyl-4-(2-fluorophenoxy)phenyl)quinolin-2-amine], in test [1], the inhibition at 1 µM stood at 99% and the IC50 lay within 1 to 200 nM. Also, in the test on DENV-2 strain 16681, the inhibition at 10 µM was 104%.

Regarding `CCc1cc(OC2CCC2)ccc1Nc1ccc2cccc(Cl)c2n1` [Compound 41, 8-chloro-N-(4-cyclobutoxy-2-ethylphenyl)quinolin-2-amine], in test [1], the half-inhibitory concentration (IC50) was 1 to 200 nM.

`COc1ccc(Oc2ccc(Nc3ccc4ccccc4n3)c(C)c2)c(F)c1` [Compound 45, N-(4-(2-fluoro-4-methoxyphenoxy)-2-methylphenyl)quinolin-2-amine] displayed a concentration for half-maximal inhibition (IC50) in test [1] of 1 to 200 nM.

Take `Cc1cc(Oc2ccccc2F)c(C)cc1Nc1ccc2cccc(Cl)c2n1` [Compound 63, 8-chloro-N-(4-(2-fluorophenoxy)-2,5-dimethylphenyl)quinolin-2-amine 2,2,2-trifluoroacetate]: the inhibition at 10 µM in the test with DENV-2 strain 16681 came to 74%.

Regarding `CCc1cc(Oc2ccc(OC)cc2F)ccc1Nc1ccc2ccccc2n1` [Compound 76, N-(2-ethyl-4-(2-fluoro-4-methoxyphenoxy)phenyl)quinolin-2-amine], the inhibition at 10 µM in the test with DENV-2 strain 16681 turned out to be 78%.

Consider `COc1ccc(Oc2ccc(Nc3ccc4ccccc4n3)cc2)c(F)c1` [Compound 77, N-(4-(2-fluoro-4-methoxyphenoxy)phenyl)quinolin-2-amine], for which, in the test on DENV-2 strain 16681, the inhibition at 10 µM was determined as 87%.
